Laboratory results reported in patent US10329304B2, “Compounds and methods for inhibition of hedgehog signaling and phosphodiesterase” (Vanderbilt University, priority 2014, dated 2019).
“And” between values parts separate entries of the source, which are not always exact repeats. Equal entries are not always repeated. “Also recorded” adds a separate entry of the source. Where two headings read alike, the source gives them in different places.

Key:
IFT88 localization = experiment: IFT88 immunostaining in NIH3T3 cells; assay type: cell-based; settings: EGM 5 μM; ciliobrevin D 100 μM
From the text: To investigate whether the disruption of the cilium-to-nucleus trafficking of Gli2 by eggmanone was due to a general defect in the retrograde transport within the primary cilium, we compared the effect of the cytoplasmic dynein motor inhibitor ciliobrevin D with the effect of eggmanone on the intraflagellar transport protein 88 (IFT88) trafficking^19. […] Thus, the effects of eggmanone on Gli2 trafficking is specific, rather than an indirect consequence of a global defect in ciliary transport machinery.

ptch1 expression [1] = experiment: RT-PCR of ptch1 in NIH3T3 cells stimulated with purmorphamine; assay type: cell-based; settings: NIH3T3 fibroblasts
Description: NIH3T3 cells were stimulated with 3 μM purmorphamine in the presence of eggmanone or DMSO for 24-hours. Cells were collected and RNA isolated with RNeasy kit (Qiagen, Valencia, Calif.). After subsequent cDNA amplification using Superscript III (Invitrogen, Carlsbad, Calif.), samples were quantified by comparing Q-PCR cycle thresholds (Ct) for gene expression normalized to GAPDH. The following TaqMan probe and primer sets (Applied Biosystems) were used: GAPDH (Mm99999915_g1), and Patch1 (Mm01306905_mi).

[2] = test system: total cellular cAMP levels; experiment: cAMP assay (total cellular cAMP, EIA chemiluminescence); assay type: cell-based
Description: Shh-Light2 cells were seeded in a 96-well plate and incubated overnight. Varying concentrations of Rolipram or Eggmanone (0.013 uM-30 uM) or DMSO only were added to the cells in the absence of serum and incubated 30 minutes, at which time forskolin was added for a final concentration of 1 uM. After an additional 15 minutes, cells were washed with PBS and assayed for cAMP levels using EIA based chemiluminescence kit according to the manufacturer's protocol (Cell Signaling Technologies, Danvers, Mass.).

ptch1 expression [3] = experiment: Whole mount zebrafish in situ hybridization for ptch1; assay type: in vivo; settings: 2 μM from 4 hpf
Description: In situ hybridization was performed as previously described. Zebrafish ptch1 probes were produced as previously described.

11 PDE families = experiment: In vitro PDE activity assays across 11 PDE families; assay type: biochemical
Description: (§1) In vitro PDE profiling and dose-response assays were performed by BPS Biosciences (San Diego, Calif.). Kinetic Mechanism of inhibition studies were conducted by Millipore (St. Louis, Mo.). In brief, the PDE assay measures fluorescent polarization of FAM-AMP as FAM-cAMP is converted to FAM-AMP by PDE), the binding agent.
(§2) A series of dilutions of the test compound were prepared with 10% DMSO in assay buffer and 5 μl of the dilution was added to a 50 μl reaction so that the final concentration of DMSO is 1% in all of reactions. All of the PDE enzymatic reactions were conducted in duplicate at room temperature for 60 minutes in a 50 μl mixture containing PDE assay buffer (10 mM Tris-HCl, pH7.4, 10 mM MaCl2, 0.05% Tween 20), 100 nM FAM-cAMP, a PDE enzyme and a test compound.
(§3) After the enzymatic reaction, 100 μl of a binding solution (1:100 dilution of the binding agent, which contains the nano beads that recognize FAM-AMP, with the binding agent diluent) was added to each reaction and the reaction was performed at room temperature for 60 minutes. Fluorescence intensity was measured at an excitation of 485 nm and an emission of 528 nm using a Tecan Infinite M1000 microplate reader. Assays done by Millipore were conducted similarly with changes noted below: […]

hiPSC-CMs = experiment: Contractile function of hiPSC-derived cardiomyocytes; assay type: cell-based, human
PKA activation = experiment: Immunostaining of autophosphorylated PKA catalytic subunit in NIH3T3 cells; assay type: cell-based; settings: SAG-stimulated NIH3T3 cells, Egm 5 μM, Rolipram 10 μM
Description: NIH3T3 cells were plated on Poly-D-Lysine-coated glass coverslips and were cultured at 37° C., 5% CO2 in DMEM medium containing 10% fetal bovine serum until reaching 75% confluency. For one set of experiments, cells were then transfected with VSV-tagged PDE4D3 plasmid (gift from Miles Houslay, University of Glasgow, Scotland, UK) using Fugene6 transfection reagent (Roche, Indianapolis, Ind.) per manufacturer's protocol. Afterward, cell medium was replaced with DMEM/0.5% FBS containing either 5 μM eggmanone or DMSO and incubated overnight at 37° C., 5% CO2. Cells were fixed in 4% PFA at room temperature for 10 minutes prior to permeabilization, blocking, and staining with primary antibodies against Arl13b (gift of Tamary Caspary, Emory University, Atlanta, Ga.) and VSV (AbCam, Cambridge, Mass.). Fluorescent immunocytochemistry was performed using species-specific, secondary antibodies (Jackson Immunoresearch, West Grove, Pa.). For additional immunocytochemistry experiment, cells were treated with 20 nM SAG in the presence or absence of 5 uM Eggmanone. After overnight incubation, cells were washed with PBS, fixed for 10 minutes in 4% PFA, permeabilized 20 minutes at −20C with cold methanol, blocked with PBS/1% BSA, and incubated with primary antibodies to phospho-PKA catalytic domain Thr197 (Cell Signaling, Danvers, Mass.) and then to Arl13b. An additional overnight blocking step using unconjugated rabbit IgG was required between primary antibody incubations since both antibodies were produced in rabbit. Fluorescent conjugated secondary antibodies were used for visualization. Data analysis was performed in part through the use of the VUMC Cell Imaging Shared Resource.
Using ImageJ software (National Institutes of Health, developed by W. Rasband), a region of interest was created using the magic wand tool on Arl13b channel and transposed to the Gli2 channel, and integrated density was measured and reported as arbitrary units (a.u.). For phospho-PKA, using ImageJ, a line selection tool was used to select a line projected through the length of the primary cilia and an equal length beyond. The intensity values were potted and the cumulative florescence (area under the curve) was calculated for three cilia, blindly, for each treatment. These values for cilia and pericilia domain were analyzed by a two tailed students t-test. For correlation analysis, correlation coefficient for intensity of gamma-tubulin and phosphor-PKA were calculated and compared among treatments with students t-test.

[4] = test system: RSV (respiratory syncytial virus); experiment: RSV CPE / plaque assay in HEp-2 cells; assay type: cell-based
Description: In Table 11, the results of CPE assays following infection of human epidermoid cancer cells (HEp-2) with RSV. Even at 10,000 higher viral titers, our compound achieved complete inhibition at 10 μM. At 1 and 3 μM, the compound achieved over 98% reduction. The exemplary compound alone caused no apparent cytotoxicity at these concentrations.

PDE4 isoforms = experiment: In vitro PDE dose-response assays (BPS Biosciences); assay type: biochemical; settings: isoforms of PDE4 A-D; read-out: IC50 range over PDE4 isoforms
Description: as §1, §2, §3

PDE4D3-AKAP450 = PDE4D3-AKAP450 (Homo sapiens, UniProt Q08499); experiment: PDE4D3 localization and co-immunoprecipitation with AKAP450; assay type: cell-based; settings: 5 μM
consensus PDE4D sequence = consensus PDE4D sequence (Homo sapiens, UniProt Q08499); experiment: PDE4D inhibition (consensus PDE4D sequence); assay type: biochemical
Chain of consensus PDE4D sequence (Q08499 whole entry): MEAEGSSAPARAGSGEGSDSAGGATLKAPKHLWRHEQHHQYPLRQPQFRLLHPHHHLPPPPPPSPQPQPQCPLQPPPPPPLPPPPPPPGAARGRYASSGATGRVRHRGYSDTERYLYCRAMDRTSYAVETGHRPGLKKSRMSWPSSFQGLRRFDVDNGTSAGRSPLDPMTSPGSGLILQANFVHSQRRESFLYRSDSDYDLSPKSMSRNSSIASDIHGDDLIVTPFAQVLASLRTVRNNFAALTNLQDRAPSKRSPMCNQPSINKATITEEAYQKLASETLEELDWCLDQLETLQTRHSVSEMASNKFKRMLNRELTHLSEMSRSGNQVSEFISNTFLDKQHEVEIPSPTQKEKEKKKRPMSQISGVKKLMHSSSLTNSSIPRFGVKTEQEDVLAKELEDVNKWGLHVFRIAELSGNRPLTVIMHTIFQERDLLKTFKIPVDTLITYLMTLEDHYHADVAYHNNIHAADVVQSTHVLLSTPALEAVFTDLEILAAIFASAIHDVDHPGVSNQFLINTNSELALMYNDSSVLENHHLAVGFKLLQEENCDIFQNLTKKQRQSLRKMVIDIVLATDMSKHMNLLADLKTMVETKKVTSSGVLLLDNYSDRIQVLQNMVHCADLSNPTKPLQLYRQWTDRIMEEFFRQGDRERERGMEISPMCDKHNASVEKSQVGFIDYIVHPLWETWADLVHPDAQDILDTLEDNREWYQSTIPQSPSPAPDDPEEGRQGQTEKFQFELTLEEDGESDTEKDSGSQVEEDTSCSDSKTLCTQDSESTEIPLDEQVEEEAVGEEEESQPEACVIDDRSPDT
From the text: First, the contribution of PDE4 was revisited as a potential explanation for the observed mechanistic drift.

| SMILES | IFT88 localization in the cilium (IFT88 localization) | ptch1 expression in response to purmorphamine (ptch1 expression [1]) | Total cellular cAMP levels [2] | Hh-responsive ptch1 expression in embryos (ptch1 expression [3]) | PKA activation (phospho-PKA-C staining), spatial distribution (PKA activation) | PDE4D inhibition in words (consensus PDE4D sequence) | other results |
| --- | --- | --- | --- | --- | --- | --- | --- |
| C=C(C)Cn1c(SCC(=O)c2cccs2)nc2sc3c(c2c1=O)CCCC3 [EGM, Eggmanone] | did not affect IFT88 localization | significantly inhibited ptch1 expression in response to purmorphamine | without raising total cellular cAMP content | abolished Hh-responsive ptch1 expression in adaxial cells; also recorded: abolished Hh-responsive ptc1 expression in adaxial cells; also recorded: abolished Hh-responsive ptch1 expression in somites | increases local PKA activation at the base of the primary cilia; also recorded: spatially restricted activation of PKA around the centrosome |  | Total cellular cAMP levels ([2]; listed as Egm): only caused small increase at concentrations above those required to inhibit Hh signaling; Inhibition across PDE families (11 PDE families; 10 μM (10 and 50 μM)): significantly inhibited only the PDE4 class; Contractile function (hiPSC-CMs): increased contractile function; PKA activation (phospho-PKA-C staining), spatial distribution (PKA activation; listed as Egm): increases local PKA activation at the base of the primary cilia; also recorded: increases local PKA activation at the basal body |
| C=C(C)Cn1c(SCC(=O)c2cccs2)nc2sc3c(c2c1=O)CCCC3 [Eggmanone, 3-(2-methylallyl)-2-((2-oxo-2-(thiophen-2-yl)ethyl)thio)-5,6,7,8-tetrahydrobenzo[4,5]thieno[2,3-d]pyrimidine-4(3H)-one] | had no effect on IFT88 localization or cilium morphology | significantly inhibited ptch1 expression in response to purmorphamine | had no effect on total cellular cAMP content; also recorded: did not significantly increase total cAMP levels | abrogated the expression of the Hh target gene patched-1 (ptch1) | significantly increased the intensity of PKA activation almost exclusively at the basal body |  | Antiviral effect on RSV [4]: has antiviral effects; Total cellular cAMP levels ([2]; listed as eggmanone): did not increase total cAMP levels; Inhibition across PDE families (11 PDE families; 10 μM (10 and 50 μM in b110)): significantly inhibited only the PDE4 family; Inhibition across PDE families (11 PDE families; 10 μM (10 and 50 μM in b110), listed as eggmanone): significantly inhibited only the cAMP specific PDE4 family; IC50 (PDE4 isoforms): 0.8 to 3 µM and 0.8 to 3.75 µM; PDE4D3 localization / physical association with AKAP450 (PDE4D3-AKAP450): does not disrupt PDE4D3 localization; also recorded: did not disrupt PDE4D3 localization or physical association with AKAP450; PKA activation (phospho-PKA-C staining), spatial distribution (PKA activation; listed as eggmanone): significantly increased the intensity of PKA activation almost exclusively in the basal body |
| CCCn1c(SCC(=O)c2cccs2)nc2sc3c(c2c1=O)CCCC3 [Formula 9e] |  |  |  |  |  | tracked well with EGM1's IC50:EC50 ratio |  |
| C=C(C)Cn1c(SCC(=O)c2ccccc2)nc2sc3c(c2c1=O)CCCC3 [Formula 9g] |  |  |  |  |  | tracked well with EGM1's IC50:EC50 ratio |  |
